Values after ≈ are worked out from the molar mass of the structure shown. Like-named read-outs stand apart in the source and are kept apart here.
Legend:
[1] = molecular target: T1, Aβ(1-42) (Homo sapiens, UniProt P05067); assay: ThT equilibrium inhibition assay of Aβ aggregation; assay type: biochemical; details: for ThT values compared with the original trimer: Aβ(1-42), in words
T1 construct: Aβ(1-42)-peptide (Bachem, Bubendorf, Germany) was prepared in HFIP; purchased Bachem, Bubendorf
Procedure: After 72 h, the aggregation process has reached a maximum in the absence or presence of any trimeric ligand, even for the slow Aβ (1-40) peptide. The respective equilibrium concentration is then indicated by the relative fluorescence intensity reached at the end point. The full series of new aminopyrazole trimer derivatives was subjected to ThT inhibition experiments and the final equilibrium was analyzed by comparison of the respective fluorescence intensities of intercalated dye at 482 nm (exc. at 442 nm). […] Their proposed mechanism of action is discussed within the next chapters together with all the other biophysical, biochemical as well as modeling data.
(§1) Thioflavin T (ThT) measurements were carried out in a 384-well plate (Nunc GmbH, Wiesbaden, Germany) in an InfiniTe 200 plate reader (Tecan GmbH, Crailsheim, Germany). Fluorescence intensity was measured at 37° C., 446 nm excitation wavelength (bandwidth 9 nm) and 490 nm emission wavelength with a bandwidth of 20 nm. Each data point was averaged over 40 lamp flashes. Each measurement cycle was started by shaking the sample carrier orbitally for 30 s at medium intensity to avoid settling of larger aggregates. The 384-well plate was covered with a transparent and DMSO-stable film (Nunc GmbH, Wiesbaden, Germany). Each single sample was composed of 33 μM Aβ(1-40) or rather Aβ(1-42) in 10 mM PBS (phosphate buffered saline), 10.7% DMSO, 10 μM ThT and 198 μM of the test compound. For graph representation emission values of fourfold samples were averaged. Each test compound was measured separately, both in 10 mM PBS and 10 mM PBS with ThT to exclude any potential interactions between ligand and ThT.
The ThT assay solution was briefly centrifugated and it was pipetted in a 384-well plate. The ThT fluorescence was measured at λEx=446 nm and λEm=490 nm. Each point is the average of quadruplication.

[2] = molecular target: T2, preformed Aβ(1-42) fibrils (Homo sapiens, UniProt P05067); assay: ThT equilibrium disaggregation assay of preformed fibrils; assay type: biochemical; details: 33 μM Aβ42 preformed fibrils, 198 μM ligand, 10 mM PBS pH 7.3
T2 construct: Aβ(1-42)-peptide (Bachem, Bubendorf, Germany) was prepared in HFIP; purchased Bachem, Bubendorf
Excerpt: Starting from preformed fibrils, the disassembly process was also monitored with the full series of modified trimeric aminopyrazoles. […] In other words, little difference is observed between the end points of aggregation assays, in which the ligand inhibits de novo aggregation starting from monomeric Aβ molecules, and those experiments, which require disaggregation of preformed fibrils by externally added ligand. Experimental evidence is thus provided for the fact, that aminopyrazole ligands operate in a fully reversible fashion, and reach an open equilibrium when the thermodynamically most favorable complex is formed.
as §1
After that, 9.5 μL ThT (62.7 μM stock solution) was pipetted and the assay solution was briefly centrifugated. The ThT fluorescence was measured at λEx=446 nm and λEm=490 nm. For graph representation emission values of fourfold samples were averaged.

[3] = test system: differentiated rat pheochromocytoma (PC-12) cells; assay: cells; details: for PC-12 cell protection: in words, compared to the Trimer standard
Procedure: Next, to examine whether the aminopyrazole trimers could protect cell from Aβ42-induced neurotoxicity, cells were treated for […] with 10 μM Aβ(1-42), a concentration that produces 30 to 40% decrease in cell viability, in the absence or presence of 100 μM of each compound. The viability of the cells then was assessed using the MTT assay.
MTT viability assays. Cell viability assays were performed as described in Fradinger et al. (Fradinger et al., PNAS, 2008). Rat pheochromocytoma (PC-12) cells were maintained in F-12 nutrient mixture with Kaighn's modification (F-12K) (Gibco BRL, Carlsbad, Calif.) with 15% heat-inactivated horse serum and 2.5% FBS at 37° C. in an atmosphere of 5% CO2. For cell viability assays, cells were plated in 96-well plates at a density of 25,000 cells per well in differentiation media (F-12K, 0.5% FBS, […] nerve growth factor) and maintained for 48 h. Aβ42 was solubilized in a minimal amount of DMSO (Sigma) and then diluted in the F-12K media in the absence or presence of the compounds and then added to cells and incubated for 48 h at 37° C. The final Aβ42 concentration was always kept constant at 10 μM. The stock solutions of the compounds were prepared at 10 mM in DMSO and diluted in the F-12K media at the required concentration. Negative controls included DMSO at the same concentration as in the peptide solutions and media alone. A positive control was […] staurosporine as lethal dose which represented 100% reduction in cell viability, based on which the percentage viability of all of the experimental conditions was calculated. Cell viability was assessed quantitatively by the CellTiter 96 Non-Radioactive Cell Proliferation Assay (Promega). Briefly, 15 μl of 3-(4,5-dimethylthiazol-2-yl)-2,5-diphenyltetra-zolium bromide (MTT) dye solution was incubated with the cells for 3 h. Then 100 μl of solubilization/stop solution was added and the plates were incubated overnight in the dark to ensure complete solubilization. Plates were read by using a Synergy HT microplate reader (BioTek), and the absorbance at 570 nm (formazan product) minus the absorbance at 630 nm (background) was recorded. Corrected absorbance was used to calculate the percent cell viability from the experimental change (Amedia-Aexperimental) over the dynamic range (Amedia-Astaurosporine). At least three independent experiments with six replicates (n≧18) were carried out, and the results were averaged.
To determine the IC50 value of each of the compounds, dose-dependence MTT experiments with the compounds were conducted. Aβ42 was used at 10 μM and the compounds were used at 100, 30, 10, 3, 1 and 0.3 μM. Three independent experiments with six replicates (n≧18) were carried out, and results were averaged. The data for each compound was fitted to the following equation to get the IC50 values. y=Bottom+((Top−Bottom)/(1+10^(x-log(IC^50^))))
Top: the y value at which the top of the sigmoidal curve becomes parallel to the X-axis; Bottom: the y value at which the bottom of the sigmoidal curve becomes parallel to the X-axis.
Also, MTT viability assays were run with differentiated PC-12 cells.

[4] = Solubility of the unprotected aminopyrazole trimers (stock solutions); details: water (class a) or DMSO (class b)
Procedure: The ligands were dissolved in 100% DMSO as 4.95 mM stock solutions and were stored at −20° C.

[5] = Rattus norvegicus, PC-12, read-out: IC50 of inhibition of Aβ-induced toxicity

T1 sequence (P05067 672-713 limits assumed): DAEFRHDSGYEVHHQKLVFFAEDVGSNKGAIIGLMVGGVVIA
T2 sequence (P05067 672-713 limits assumed): as above

Row | solubility [4] [mM] | ThT values compared with the original trimer [1] | Compound | IC50 [3, 5] [µM] | also measured
1 |  |  | 1-(3-(3-(3-nitro-1H-pyrazole-5-carboxamido)-1H-pyrazole-5-carbox-amido)-1H-pyrazol-5-yl)-1-oxo-5,8,11-trioxa-2-azatridecan-13-carboxamido-(S)-lysinyl-(S)-lysinyl-(S)-lysinyl-(S)-lysinyl-(S)-lysinyl-(S)-glycine [Trimer-TEG-KKKKKG-OH] |  | ThT fluorescence level, inhibition of aggregation ([1]; 33 μM Aβ42, 198 μM ligand, 10 mM PBS pH 7.3, 72 h): 20%; ThT fluorescence level, disaggregation [2]: 20%
2 | 0.2 to 4.95 (≈ 96.9 to 2400 µg/mL) | surpass the original trimer activity | CC(NC(=O)c1cc(NC(=O)c2cc(NC(=O)c3cc([N+](=O)[O-])n[nH]3)n[nH]2)n[nH]1)C1CCCCC1 (stereo not drawn) [Trimer-Che, N-(1-Cyclohexylethyl)-3-(3-(3-nitro-1H-pyrazole-5-carboxamido)-1H-pyrazole-5-carboxamido)-1H-pyrazole-5-carboxamide] |  | 
3 | 0.2 to 4.95 (≈ 125 to 3090 µg/mL) |  | CC(NC(=O)C(NC(=O)c1cc(NC(=O)c2cc(NC(=O)c3cc([N+](=O)[O-])n[nH]3)n[nH]2)n[nH]1)C1CCCCC1)C1CCCCC1 (stereo not drawn) [Trimer-Chg-Che, N-(1-Cyclohexyl-2-(1-cyclohexylethylamino)-2-oxoethyl)-3-(3-(3-nitro-1H-pyrazol-5-carboxamido)-1H-pyrazol-5-carboxamido)-1H-pyrazol-5-carboxamide] | 81 | 
4 | 0.2 to 4.95 (≈ 92.1 to 2280 µg/mL) | above the trimer standard | O=C(O)CCCNC(=O)c1cc(NC(=O)c2cc(NC(=O)c3cc([N+](=O)[O-])n[nH]3)n[nH]2)n[nH]1 [Trimer-GABA-OH, 4-(3-(3-(3-Nitro-1H-pyrazole-5-carboxamido)-1H-pyrazole-5-carboxamido)-1H-pyrazole-5-carboxamido)butanoic acid] | 18.5 | 
5 | 0.2 to 4.95 (≈ 94.9 to 2350 µg/mL) | above the trimer standard | COC(=O)CCCNC(=O)c1cc(NC(=O)c2cc(NC(=O)c3cc([N+](=O)[O-])n[nH]3)n[nH]2)n[nH]1 [Trimer-GABA-OMe, 4-(3-(3-(3-Nitro-1H-pyrazole-5-carboxamido)-1H-pyrazole-5-carboxamido)-1H-pyrazole-5-carboxamido)butanoic acid methyl ester] | 20.3 | 
6 | 0.2 to 4.95 (≈ 135 to 3330 µg/mL) |  | CC(NC(=O)COCCOCCOCCNC(=O)c1cc(NC(=O)c2cc(NC(=O)c3cc([N+](=O)[O-])n[nH]3)n[nH]2)n[nH]1)C1CCCCC1 (stereo not drawn) [Trimer-TEG-Che, N-(13-Cyclohexyl-11-oxo-3,6,9-trioxa-12-azatetradecyl)-3-(3-(3-nitro-1H-pyrazole-5-carboxamido)-1H-pyrazole-5-carboxamido)-1H-pyrazole-5-carboxamide] |  | 
7 | 0.2 to 4.95 (≈ 146 to 3620 µg/mL) |  | CCCCCCCCCCCCNC(=O)COCCOCCOCCNC(=O)c1cc(NC(=O)c2cc(NC(=O)c3cc([N+](=O)[O-])n[nH]3)n[nH]2)n[nH]1 [Trimer-TEG-Dodecyl, 3-Nitro-N-(5-(5-(11-oxo-3,6,9-trioxa-12-azatetracosylcarbamoyl)-1H-pyrazol-3-ylcarbamoyl)-1H-pyrazol-3-yl)-1H-pyrazole-5-carboxamide] | > 100 | 
8 | 0.2 to 4.95 (≈ 119 to 2930 µg/mL) |  | CCOC(=O)COCCOCCOCCNC(=O)c1cc(NC(=O)c2cc(NC(=O)c3cc([N+](=O)[O-])n[nH]3)n[nH]2)n[nH]1 [Trimer-TEG-OEt, 1-(3-(3-(3-Nitro-1H-pyrazole-5-carboxamido)-1H-pyrazole-5-carboxamido)-1H-pyrazole-5-yl)-1-oxo-5,8,11-trioxa-2-azatridecan-13-oic acid ethyl ester] |  | PC-12 cell protection [3]: only very modest
9 | 0.2 to 4.95 (≈ 113 to 2790 µg/mL) |  | O=C(O)COCCOCCOCCNC(=O)c1cc(NC(=O)c2cc(NC(=O)c3cc([N+](=O)[O-])n[nH]3)n[nH]2)n[nH]1 [Trimer-TEG-OH, {2-[2-(2-{[5-({5-[(5-Nitro-2H-pyrazole-3-carbonyl)-amino]-2H-pyrazole-3-carbonyl}-amino)-2H-pyrazole-3-carbonyl]-amino}-ethoxy)-ethoxy]-ethoxy}-acetic acid] | 35.3 | PC-12 cell protection [3]: only very modest
10 | 0.2 to 4.95 (≈ 83.5 to 2070 µg/mL) | above the trimer standard | NCCNC(=O)c1cc(NC(=O)c2cc(NC(=O)c3cc([N+](=O)[O-])n[nH]3)n[nH]2)n[nH]1 [Trimer-diamine, N-(2-Aminoethyl)-3-(3-(3-nitro-1H-pyrazole-5-carboxamido)-1H-pyrazole-5-carboxamido)-1H-pyrazole-5-carboxamide] |  | 
11 |  |  | Trimer-TEG-LPFFD-OH [1-(3-(3-(3-nitro-1H-pyrazole-5-carboxamido)-1H-pyrazole-5-carbox-amido)-1H-pyrazol-5-yl)-1-oxo-5,8,11-trioxa-2-azatridecan-13-carboxamido-(S)-leucinyl-(S)-prolinyl-(S)-phenylalaninyl-(S)-phenylalaninyl-(S)-aspartic acid] |  | IC50 ([3]; read-out: IC50 of inhibition of Aβ-induced toxicity, PC-12 cells, MTT, Aβ42 10 μM, ligand 0.3-100 μM): 10.1 µM

Row | Compound | solubility [4] [mM] | ThT values compared with the original trimer [1] | IC50 [3, 5] [µM] | also measured
12 | NCCCC[C@H](NC(=O)c1cc(NC(=O)c2cc(NC(=O)c3cc([N+](=O)[O-])n[nH]3)n[nH]2)n[nH]1)C(=O)NCCCOCCOCCOCCCNC(=O)[C@H](CCCCN)NC(=O)c1cc(NC(=O)c2cc(NC(=O)c3cc([N+](=O)[O-])n[nH]3)n[nH]2)n[nH]1 [Trim-Lys-TEGDA-Lys-Trim, N,N′-((5S,23S)-1,27-diamino-6,22-dioxo-11,14,17-trioxa-7,21-diazaheptacosane-5,23-diyl)bis(3-(3-(3-nitro-1H-pyrazole-5-carboxamido)-1H-pyrazole-5-carboxamido)-1H-pyrazole-5-carboxamide)] | > 4.95 |  | 21.5 | 
13 | CC(NC(=O)C(CCCCN)NC(=O)c1cc(NC(=O)c2cc(NC(=O)c3cc([N+](=O)[O-])n[nH]3)n[nH]2)n[nH]1)C1CCCCC1.O=C(O)C(F)(F)F (stereo not drawn) [Trimer-Lys-Che, N-(6-Amino-1-(1-cyclohexylethylamino)-1-oxohexan-2-yl)-3-(3-(3-nitro-1H-pyrazole-5-carboxamido)-1H-pyrazole-5-carboxamido)-1H-pyrazole-5-carboxamide-trifluoro-acetate] | > 4.95 | surpass the original trimer activity |  | 

Reference: patent US8481494B2, “Compounds for the treatment of diseases related to protein misfolding” (priority 2009, dated 2013)
